Columns and labels:
Type in all cases: in vivo, male F344/N rats
[1] = 14-day rat study: 24 h urinary excretion of OTA and OTA-glucuronides, LC–MS/MS with and without β-glucuronidase hydrolysis; details: for Urinary excretion / Urinary excretion, fraction of the administered dose: 2 mg OTA/kg bw oral, 5 d/week; for Urinary excretion, fraction of the administered dose: 24 h urine
Description: (§1) 14-day study: Male F344 rats (170–190 g) were purchased from Charles-River Laboratories, Sulzfeld, Germany. Animals had free access to water and standard diet (Altromin) and were kept under standard conditions (12 h day/night cycle, temperature 21–23 °C, humidity 45–55%). Rats were transferred to metabolic cages (Tecniplast Metabolic Cage—Rats Over 300 g; Tecniplast, Italy) for collection of urine 3 days prior to dosing. Animals were administered OTA dissolved in corn oil by oral gavage at 0, 0.25, 0.5, 1.0 and 2.0 mg/kg bw for 2 weeks (5 days per week). Urine was collected every 12 h on day 1 of treatment and every 24 h thereafter on ice, aliquoted and stored at −20 °C until further analysis.
(§2) Duplicate analysis of OTA in urine samples with and without enzymatic hydrolysis allowed for indirect measurement of glucuronides, whereby an increase in the concentration of OTA in the samples incubated with enzyme compared to those without enzymatic treatment reflected the hydrolyzed glucuronides. Aliquots of rat urine (125 µL) were mixed with 0.1 M sodium acetate (104 µL; pH = 5). For analysis of the concentration of OTA without enzymatic hydrolysis, an aliquot (30 µL) of this solution was removed and mixed with 7 µL acetonitrile. The remaining solution (199 µL) was incubated with β-glucuronidase (1.65 µL; <100,000 units/mL) at 37 °C for 1 h. Hydrolysis was terminated by addition of ice-cold acetonitrile (50 µL) and centrifugation (15 min., 4 °C, 20,000× g). To 98 µL supernatant, 2 µL isotopically labeled ^13C20-OTA in acetonitrile (14-day study: 5 µg/mL; 90-day study: 1 µg/mL) was added as an internal standard. For analysis, 10 µL of each sample were injected into the LC–MS system and analyzed using the method described below. A calibration curve was prepared from solutions of OTA and the isotopically labeled ^13C20-OTA internal standard in acetonitrile and subsequent dilution with urine of a control animal.
(§3) LC–MS/MS analyses were performed on an Agilent 1100 series LC coupled to an API 2000/Q-Trap mass spectrometer (Applied Biosystems/MDS Sciex, Concord, Canada). Samples were injected into the LC–MS/MS system through an Agilent 1100 series autosampler. Separations were carried out on a ReproSil-Pur C18 AQ column (2 mm × 150 mm, 5 µm; Dr. Maisch; Ammerbuch, Germany). Gradient elution of OTA-derived metabolites was carried out with water + 0.1% formic acid (solvent A) and acetonitrile (solvent B). Initially, solvent A was held isocratic for 5 min at 100%, followed by a linear gradient to 95% B in 5 min. These conditions were held for further 5 min. Within 1 min, the gradient decreased linearly to 0% B and remained at initial conditions until the end of analysis (30 min). A flow rate of 0.2 mL/min was used. For each run, 10 µL of the respective sample were injected by the autosampler.
(§4) The API 2000/Q-Trap mass spectrometer was operated with a Turbo Ion Spray source in negative ion mode with a voltage of −4000 V. Spectral data were recorded with N2 as the heater gas at 450 °C and as the collision gas (CAD = −2) in multiple reaction monitoring mode (MRM).

[2] = Direct LC–MS/MS analysis of OTA metabolites in urine of OTA-treated rats; details: OTA up to 2 mg/kg bw, negative ionization mode
Description: Archived urine samples from previous repeated dose oral toxicity studies on OTA in male F344/N rats were used. The studies were performed according to national animal welfare regulations after authorization by the local authorities (Regierung von Unterfranken, AZ 621-2531.01-9/98 and AZ 54-2531.01-59/05).
as §1
(§5) 90-day study: Male F344/N rats (6–7 weeks old) were purchased from Harlan-Winkelmann, Borchen, Germany. Animals were housed in groups of 5 in Macrolon type-4 cages and allowed free access to pelleted standard rat maintenance diet (SSNIFF, Soest, Germany) and tap water. After a week of acclimatization, rats (n = 5/dose) were exposed to OTA dissolved in corn oil by oral gavage at doses of 0, 21, 70 or 210 µg/kg bw for 2, 4 or 13 weeks (5 days per week). For urine collection, animals were transferred into metabolic cages (Tecniplast Metabolic Cage—Rats Over 300 g; Tecniplast, Italy) 48 h prior to necropsy and fasted for 20 h but allowed free access to tap water. Urine was collected for 24 h on ice, aliquoted and stored at −20 °C until further analysis.
Urine samples were diluted with acetonitrile (2:1), vortexed and cleared via centrifugation (4 °C, 15 min., 2000× g) to precipitate proteins. Of the resulting supernatant, 10 µL were injected into the LC–MS system and analyzed using the method described below.
as §3, §4
In addition to MRM, constant neutral loss of 129 amu in the negative ion mode based on the characteristic fragmentation pattern of mercapturic acids was used to screen for N-acetyl-cysteine conjugates of OTA. Furthermore, constant neutral loss of 176 amu in positive ion mode based on the fragmentation pattern of glucuronic acid conjugates was used to screen for OTA glucuronides.

[3] = 90-day rat study: 24 h urinary excretion of OTA and OTA-glucuronides, LC–MS/MS with and without β-glucuronidase hydrolysis; details: for Urinary excretion, fraction of the administered dose / Urinary excretion: 5 days/week; for Urinary excretion, fraction of the administered dose: 24 h urine
Description: as §5, §2, §3, §4

[4] = 4 weeks treatment, OTA 210 μg/kg bw per day oral, n = 1

CC1Cc2c(Cl)cc(C(=O)NC(Cc3ccccc3)C(=O)OC3OC(C(=O)O)C(O)C(O)C3O)c(O)c2C(=O)O1 (centres unmarked) [OTA-Glucuronide]
Urinary excretion ([1]; animal 2, day 3 of treatment): 0.6 nmol/24 h
Urinary excretion, fraction of the administered dose ([1]; animal 2, day 3 of treatment): 0.1%
Urinary excretion ([1]; animal 2, day 5 of treatment): 7.0 nmol/24 h
Urinary excretion, fraction of the administered dose ([1]; animal 2, day 5 of treatment): 0.8%
Urinary excretion ([1]; animal 2, day 7 of treatment): 0.7 nmol/24 h
Urinary excretion, fraction of the administered dose ([1]; animal 2, day 7 of treatment): 0.1%
Urinary excretion ([1]; animal 2, day 9 of treatment): 12.2 nmol/24 h
Urinary excretion, fraction of the administered dose ([1]; animal 2, day 9 of treatment): 1.4%
Urinary excretion ([1]; animal 2, day 11 of treatment): 3.1 nmol/24 h
Urinary excretion, fraction of the administered dose ([1]; animal 2, day 11 of treatment): 0.4%
Urinary excretion ([1]; animal 2, day 13 of treatment): 3.4 nmol/24 h
Urinary excretion, fraction of the administered dose ([1]; animal 2, day 13 of treatment): 0.4%
Urinary excretion ([1]; animal 3, day 3 of treatment): 1.5 nmol/24 h
Urinary excretion, fraction of the administered dose ([1]; animal 3, day 3 of treatment): 0.2%
Urinary excretion ([1]; animal 3, day 5 of treatment): 1.6 nmol/24 h
Urinary excretion, fraction of the administered dose ([1]; animal 3, day 5 of treatment): 0.3%
Urinary excretion ([1]; animal 3, day 7 of treatment): 22.0 nmol/24 h
Urinary excretion, fraction of the administered dose ([1]; animal 3, day 7 of treatment): 2.4%
Urinary excretion ([1]; animal 3, day 9 of treatment): 16.9 nmol/24 h
Urinary excretion, fraction of the administered dose ([1]; animal 3, day 9 of treatment): 1.9%
Urinary excretion ([1]; animal 3, day 11 of treatment): 22.5 nmol/24 h
Urinary excretion, fraction of the administered dose ([1]; animal 3, day 11 of treatment): 2.5%
Urinary excretion ([1]; animal 3, day 13 of treatment): 6.384 nmol/24 h
Urinary excretion, fraction of the administered dose ([1]; animal 3, day 13 of treatment): 0.7%
24 h urinary excretion, % of the daily administered dose ([1]; range over the course of the study, OTA 2 mg/kg bw for 2 weeks (5 days/week)): 0.1–2.5%
Detection in urine of OTA-treated rats by direct LC–MS/MS (MRM) [2]: failed
Urinary excretion, fraction of the administered dose ([3]; 2 weeks treatment, OTA 21 μg/kg bw per day oral): 0.8%
Urinary excretion ([3]; 2 weeks treatment, OTA 21 μg/kg bw per day oral, mean ± SD): 0.10 ± 0.02 nmol/24 h
Urinary excretion, fraction of the administered dose ([3]; 2 weeks treatment, OTA 70 μg/kg bw per day oral): 0.6%
Urinary excretion ([3]; 2 weeks treatment, OTA 70 μg/kg bw per day oral, mean ± SD): 0.23 ± 0.08 nmol/24 h
Urinary excretion, fraction of the administered dose ([3]; 2 weeks treatment, OTA 210 μg/kg bw per day oral): 0.4%
Urinary excretion ([3]; 2 weeks treatment, OTA 210 μg/kg bw per day oral, mean ± SD): 0.48 ± 0.36 nmol/24 h
Urinary excretion, fraction of the administered dose ([3]; 4 weeks treatment, OTA 21 μg/kg bw per day oral): 0.7%
Urinary excretion ([3]; 4 weeks treatment, OTA 21 μg/kg bw per day oral, mean ± SD): 0.08 ± 0.09 nmol/24 h
Urinary excretion, fraction of the administered dose ([3]; 4 weeks treatment, OTA 70 μg/kg bw per day oral): 1.5%
Urinary excretion ([3]; 4 weeks treatment, OTA 70 μg/kg bw per day oral, mean ± SD): 0.61 ± 0.67 nmol/24 h
Urinary excretion, fraction of the administered dose [3, 4]: 0.2%
Urinary excretion [3, 4]: 0.21 nmol/24 h
Urinary excretion, fraction of the administered dose ([3]; 13 weeks treatment, OTA 21 μg/kg bw per day oral): 0.2%
Urinary excretion ([3]; 13 weeks treatment, OTA 21 μg/kg bw per day oral, mean ± SD): 0.03 ± 0.00 nmol/24 h
Urinary excretion, fraction of the administered dose ([3]; 13 weeks treatment, OTA 70 μg/kg bw per day oral): 1.7%
Urinary excretion ([3]; 13 weeks treatment, OTA 70 μg/kg bw per day oral, mean ± SD): 0.85 ± 0.74 nmol/24 h
Urinary excretion, fraction of the administered dose ([3]; 13 weeks treatment, OTA 210 μg/kg bw per day oral): 1.1%
Urinary excretion ([3]; 13 weeks treatment, OTA 210 μg/kg bw per day oral, mean ± SD): 1.72 ± 1.53 nmol/24 h
Relationship between OTA dose and urinary excretion (Pearson correlation) ([3]; OTA 0, 21, 70, 210 μg/kg bw, 2, 4 and 13 weeks): linear relationship
Excretion in male rat urine, % of the orally administered dose ([3]; male rats, indirect analysis, summary statement in discussion): less than 2%
Fraction of the administered dose excreted in urine ([3]; range over 90-day study, OTA 21, 70 and 210 µg/kg (5 days/week)): 0.2 to 1.7%
